Experimental data taken from patent US20090176755A1, “PHARMACEUTICAL COMPOSITIONS COMPRISING AN ANTIBIOTIC” (priority 2005, published 2009).

Experiment: Exposure of form B crystals to high relative humidity or water (polymorphic transformation)
Type: physicochemical
Description: Usually minutes of exposure to high humidity and seconds of exposure to water, such as within an suspension, are sufficient for this transformation. Such conditions are for example found during pharmaceutical production in countries with a humid climate.

exposure time sufficient for transformation into a different polymorphic form (exposure to high humidity): minutes | exposure time sufficient for transformation into a different polymorphic form (exposure to water, such as within a suspension): seconds | relative humidity at which form B transforms into a different polymorphic form with reduced stability (form B crystals exposed to humid conditions): higher than 65%
Compound: C=CC1=C(C(=O)O)N2C(=O)C(NC(=O)C(=NO)c3csc(N)n3)[C@H]2SC1 (stereo partly drawn) [crystalline form B of cefdinir, 7-[2-(2-aminothiazol-4-yl)-2-hydroxyiminoacetamido]-3-vinyl-3-cephem-4-carboxylic acid]
